Measurements: ChEMBL document CHEMBL4011609, “Discovery of novel BRD4 inhibitors by high-throughput screening, crystallography, and cell-based assays” (Bioorg Med Chem Lett, 2017)

target: T1, Bromodomain-containing protein 4 (Homo sapiens, UniProt O60885); assay: Inhibition of human BRD4-BD1 (49 to 170 residues) expressed in Escherichia coli BL21(DE3) using N-C:SGRG-K(Ac)-GG-K(Ac)-GLG-K(Ac)-GGA-K(Ac)-RHRKVGG-K(biotin) as substrate preincubated for 15 mins followed by substrate addition measured after 5 mins by AlphaScreen assay

Compound | IC50
CC(=O)N(C)c1ccc(NC(=O)COc2ccc(Br)cc2Cl)cc1 | 50.9 µM
Cc1ccc(-[n+]2c3ccccc3nc3ccc(N4CCOCC4)cc32)cc1 | 10.9 µM
CCN1C(=O)c2cccc3c(S(=O)(=O)Nc4ccccc4C)ccc1c23 | 9.68 µM
O=C(Nc1ccc(Cl)cn1)c1c(F)c(F)c(F)c(F)c1F | 32.2 µM
CCc1nnc(NC(=O)C2(C)COC(c3ccccc3)OC2)s1 (configuration not stated) | 69.2 µM
CC(=O)C(C(C)=O)C(c1ccc(Cl)cc1)c1ccc(Cl)cc1 | 27.5 µM
Cc1ccc(C)c(NC(=O)CC(c2ccccc2)c2ccccc2)c1 | 50.7 µM
CCN1C(=O)c2cccc3c(S(=O)(=O)N4CCCC4)ccc1c23 | 1.91 µM
COc1ccc(/C=C(\NC(=O)c2ccc(C)cc2)C(=O)NCCCn2ccnc2)cc1 | 11 µM
COc1ccccc1NC(=O)CCSc1cccc2cccnc12 | 18.7 µM
O=C(Nc1cccc(S(=O)(=O)N2CCCC2)c1)c1nc[nH]n1 | 42.2 µM
CCOC(=O)c1ncccc1NC(=O)CC(=O)Nc1cccnc1C(=O)OCC | 2.87 µM
CCCNS(=O)(=O)c1ccc2c3c(cccc13)C(=O)N2C | 9.57 µM
CCCNS(=O)(=O)c1ccc2c3c(cccc13)C(=O)N2CC | 2.64 µM
CC1(C)CON(Cc2ccc(N3C(=O)c4cccnc4C3=O)cc2Cl)C1=O | 12.7 µM
Cc1ccn(-c2ccc(NCCNC(=O)c3ccc(Br)o3)nn2)n1 | 21.3 µM
O=C(c1ccccc1)c1ccc(NS(=O)(=O)c2cccc(Br)c2)cc1 | 39 µM
CCCn1nnc(NC(=O)COc2ccc(Cl)cc2C)n1 | 23.1 µM
COC(=O)C(O)(c1cc(C)c2cccnc2c1O)C(F)(F)F (configuration not stated) | 2.1 µM
Cc1[nH]n(-c2nc(O)c(Cc3ccccc3)c(=O)[nH]2)c(=O)c1CCO | 3.09 µM
O=C(CN1CC(=O)Oc2ccccc21)OCC(=O)c1ccc(Br)cc1 | 1.11 µM
COc1ccc(C2=NN(C(=O)CCCC(=O)O)C(c3cn(-c4ccccc4)nc3-c3ccccc3)C2)cc1 (configuration not stated) | 5.36 µM
c1coc(-c2nnc(-c3ccc4ccccc4c3)c3nocc23)c1 | 13.3 µM
O=c1[nH]n(CC2COC3(CCCCC3)O2)c(=O)c2ccccc12 (configuration not stated) | 13.3 µM

More lines, now with the values ahead:

IC50 | Compound
11.2 µM | O=C(NCCNc1ccc(-n2cccn2)nn1)c1ccccc1Cl
0.89 µM | N#Cc1c(-c2ccc(Cl)cc2)cc(-c2cccs2)nc1SCC(=O)NCC(=O)O
3.65 µM | CN(CCCNc1cc(=O)oc2ccccc12)C(=O)c1cccc(Cl)c1
1.04 µM | O=C(CNc1cc(=O)oc2ccccc12)OCC(=O)c1ccc(Br)cc1
8.18 µM | CN(CCCNc1cc(=O)oc2ccccc12)C(=O)c1cccc(F)c1
4.56 µM | CN(CCCNc1cc(=O)oc2ccccc12)C(=O)C(C)(C)C
13.8 µM | O=C(NCCNc1ccc(-n2cccn2)nn1)c1ccccc1
2.83 µM | CC(=O)CC(c1ccccc1)c1c(O)c2ncccc2oc1=O (configuration not stated)
47.3 µM | O=C(NCc1n[nH]c(=O)c2ccccc12)c1cccc(Cl)c1
2.05 µM | CN(CCCNc1cc(=O)oc2ccccc12)C(=O)c1ccco1

target: T1, Bromodomain-containing protein 4; assay: Inhibition of human BRD4-BD1 (49 to 170 residues) expressed in Escherichia coli BL21(DE3) using N-C:SGRG-K(Ac)-GG-K(Ac)-GLG-K(Ac)-GGA-K(Ac)-RHRKVGG-K(biotin) as substrate preincubated for 15 mins followed by substrate addition measured after 5 mins by AlphaScreen assay relative to control; parameters: concentration or dose not given beside the values

Compound | inhibition
O=c1cc(NC2CCN(CCCc3ccccc3)CC2)c2ccc(Cl)cc2o1 | 22.1%
O=c1oc2ccccc2c2ncn(CCCN3CCOCC3)c12 | 40.7%
O=c1oc2ccccc2c(NC2CCN(Cc3ccccc3)CC2)c1[N+](=O)[O-] | 58.5%
CN1CCN(CCCNc2c(N)c(=O)oc3ccccc23)CC1 | 24.5%
O=c1cc(NCCCN2CCN(Cc3ccccc3)CC2)c2ccccc2o1 | 52.3%
O=c1cc(NCCCN2CCOCC2)c2ccccc2o1 | 59.9%
COc1cccc2cc(C(=O)N(C)C)c(=O)oc12 | 38.5%
O=c1oc2ccccc2c(NCCCN2CCOCC2)c1[N+](=O)[O-] | 42.8%

More lines, now with the values ahead:

inhibition | Compound
43.6% | O=C(NCCNc1cc(=O)oc2ccccc12)c1ccco1
71.5% | O=C(NCCCNC(=O)c1cccs1)c1nc2ccccc2c(=O)[nH]1
97.1% | CN(CCCNc1cc(=O)oc2ccccc12)C(=O)c1cccc(Cl)c1
56.5% | CN(CCCNC(=O)c1nc2ccccc2c(=O)[nH]1)C(=O)c1cccs1
97.4% | O=C(CNc1cc(=O)oc2ccccc12)OCC(=O)c1ccc(Br)cc1
37.2% | CN(C)CCCNCCCNc1cc(=O)oc2ccccc12
48.9% | COc1ccc(C(=O)N(C)CCCNc2cc(=O)oc3ccccc23)cc1
72% | O=C(NCCNc1cc(=O)oc2ccccc12)c1cccs1
97.3% | CN(CCCNc1cc(=O)oc2ccccc12)C(=O)c1cccc(F)c1
96.2% | CN(CCCNc1cc(=O)oc2ccccc12)C(=O)C(C)(C)C
58.5% | O=c1cc(NCCCn2ccnc2)c2ccccc2o1
30.2% | O=C(NCCCNc1cc(=O)oc2ccccc12)c1cccnc1
12.8% | O=C(NCCNc1cc(=O)oc2ccccc12)c1ccc2ccccc2n1
98% | CN(CCCNc1cc(=O)oc2ccccc12)C(=O)c1ccco1
28.6% | CN(CCCNc1cc(=O)oc2ccccc12)S(=O)(=O)c1ccccc1
